Data from patent US6399629B1, “Efflux pump inhibitors” (priority 1998, dated 2002).

Test system: Pseudomonas aeruginosa PAM1001
Assay: checkerboard assay (broth microdilution): levofloxacin MIC in presence of efflux pump inhibitor
Type: cell-based
In short: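 Checkerboard broth microdilution in Mueller Hinton Broth against P. aeruginosa PAM1001 (5×10^5 CFU/mL, early-log inoculum), levofloxacin and efflux pump inhibitor (up to 40 μg/mL) diluted along crossing axes. Plates incubated 20 h at 35° C; growth read at 650 nm and visually. Potentiation scored as reduced levofloxacin MIC.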

| Compound | Levofloxacin MIC Against P. aerugiuosa PAM1001 in Presence of Efflux Pump Inhibitor (EPI), Minimum Inhibitory Concentration (EPI Conc. 0 μg/mL) [µg/mL] | Levofloxacin MIC Against P. aerugiuosa PAM1001 in Presence of Efflux Pump Inhibitor (EPI), Minimum Inhibitory Concentration (EPI Conc. 0.625 μg/mL) [µg/mL] | Levofloxacin MIC Against P. aerugiuosa PAM1001 in Presence of Efflux Pump Inhibitor (EPI), Minimum Inhibitory Concentration (EPI Conc. 1.25 μg/mL) [µg/mL] | Levofloxacin MIC Against P. aerugiuosa PAM1001 in Presence of Efflux Pump Inhibitor (EPI), Minimum Inhibitory Concentration (EPI Conc. 2.5 μg/mL) [µg/mL] | Levofloxacin MIC Against P. aerugiuosa PAM1001 in Presence of Efflux Pump Inhibitor (EPI), Minimum Inhibitory Concentration (EPI Conc. 5 μg/ mL) [µg/mL] | Levofloxacin MIC Against P. aerugiuosa PAM1001 in Presence of Efflux Pump Inhibitor (EPI), Minimum Inhibitory Concentration (EPI Conc. 10 μg/mL) [µg/mL] | Levofloxacin MIC Against P. aerugiuosa PAM1001 in Presence of Efflux Pump Inhibitor (EPI), Minimum Inhibitory Concentration (EPI Conc. 20 μg/mL) [µg/mL] | Levofloxacin MIC Against P. aerugiuosa PAM1001 in Presence of Efflux Pump Inhibitor (EPI), Minimum Inhibitory Concentration (EPI Conc. 40 μg/mL) [µg/mL] |
| --- | --- | --- | --- | --- | --- | --- | --- | --- |
| (2R,4R)-4-(Aminomethyl)-N-(2-phenylethyl)-N-(3-quinolylcarbamoyl)ethyl]-2-pyrrolidinecarboxamide [Compound M45] | 4 | 4 | 4 | 1 | 0.50 | 0.03 | 0.015 | 0.015 |
| CC(C)(C)c1ccc2nc(CNC(=O)[C@@H]3C[C@@H](NC(=O)CN)CN3)[nH]c2c1 [Compound M81] | 4 | 4 | 4 | 4 | 2 | 1 | 0.25 | 0.03 |
| CC(C)C[C@H](COc1ccc2ccccc2c1)NC(=O)[C@H]1C[C@H](NC(=O)CN)CN1 [Compound M49, (2R,4S)-4-(2-Aminoacetamideo)-N-[(1R)-3-methyl-1-[(2-naphthyloxy)methyl]butyl]-2-pyrrolidinecarboxamide] | 4 | 4 | 4 | 4 | 4 | 1 | 0.125 | 0.06 |
| CC(C)C[C@H](COc1cnc2ccccc2c1)NC(=O)[C@H]1C[C@H](CN)CN1 [Compound M59, (2R,4R)-4-(Aminomethyl)-N-[(1R)-3-methyl-1-[(3-quiolyloxy)methyl]butyl]-2-pyrrolidinecarboxamide] | 4 | 4 | 4 | 4 | 4 | 1 | 0.5 | 0.125 |
| CC(C)(C)c1ccc2oc(C(O)[C@@H](CCc3ccccc3)NC(=O)[C@H]3C[C@H](CN)CN3)nc2c1 (mixture of isomers) [Compound M68] | 4 | 4 | 4 | 4 | 4 | 4 | 0.5 | 0.015 |
